How the values were obtained:
Type in all cases: physicochemical
[1] = Thermal transformation of crystal form (variable-temperature PXRD); settings: for temperature at which transformation to another polymorph form begins: heating, Form I to Form II, Form III to Form IV
Method: The PXRD analyses are performed using a Rigaku RINT-TTR X-ray powder diffractometer using Cu-Kalpha radiation. The samples can also be measured under the high/low temperature condition by using the attachment of the variant-temperature sample holder. The instrument is equipped with a fine focus X-ray tube. The tube voltage and amperage are set to 50 kV and 300 mA respectively. The divergence and scattering slits are set at 0.5° and the receiving slit is set at 0.15 mm. Diffracted radiation is detected by a NaI scintillation detector. A theta-two theta continuous scan at 4°/min (step size 0.02°) from 3 to 40(°) 2-theta is used. A silicon standard is analyzed to check the machine alignment. Data are collected and analyzed using-Rigaku X-ray system. Samples are prepared for analysis by placing them in an aluminum sample holder that is horizontally rotated at 60 rpm during data acquisition.
4-{[4-({[4-(2,2,2-Trifluoroethoxy)-1,2-benzisoxazol-3-yl]oxy}methyl)piperidin-1-yl]methyl}-tetrahydro-2H-pyran-4-carboxylic acid Polymorph Form I (5 mg) is placed on the temperature-variable sample holder of PXRD, and the temperature of the sample holder is raised to 120° C. and kept for 10 min., then cooled down to room temperature without nitrogen flow to the sample holder to afford Polymorph Form II of 4-{[4-({[4-(2,2,2-trifluoroethoxy)-1,2-benzisoxazol-3-yl]oxy}methyl)piperidin-1-yl]methyl}-tetrahydro-2H-pyran-4-carboxylic acid. Conversion to the Polymorph Form II is confirmed by in situ monitoring of PXRD spectrum.
4-{[4-({[4-(2,2,2-Trifluoroethoxy)-1,2-benzisoxazol-3-yl]oxy}methyl)piperidin-1-yl]methyl}-tetrahydro-2H-pyran-4-carboxylic acid Polymorph Form III begins to transform to Polymorph Form IV at around 90° C. Conversion to the Polymorph Form IV is confirmed by in situ monitoring of PXRD spectrum (variable-temperature PXRD measurement).

[2] = Hygroscopicity study by dynamic vapor sorption (DVS) analysis; settings: for weight gain %: 25° C.; for weight gain % / water absorbed: DVS; for water absorbed: under 95% RH at 25° C.
Method: Hygroscopicity study is performed using Surface Measurement Systems DVS-1. The sample is placed on a microbalance in the instrument and the weight change during the sorption/desorption cycle at 25° C. is monitored. One of the sorption/desorption programs consists of a sorption scan from 0 to 95% relative humidity (RH) and a desorption scan from 95 to 10% RH. The other consists of a sorption scan from 40 to 95% RH and desorption scan from 95 to 0% RH, followed by a second sorption scan from 0 to 40% RH. Both programs are carried out at 5% RH increments and the sample is allowed to equilibrate for 360 minutes or until equilibration had been attained at each step. At the end of the DVS experiment the sample is measured by PXRD.
In the hygroscopicity study by dynamic vapor sorption (DVS) analysis, both Polymorph Form III and Polymorph Form V absorb less than 1.2 wt % under 95% relative humidity (RH) at 25° C. On the other hand, the white solid disclosed in the prior art WO2006/090224 and Polymorph Form I absorb 15 wt % or 14 wt % of water under 95% RH at 25° C.

[3] = Solid-state stability study (constant temperature/humidity chamber; HPLC, PXRD); settings: for purity after storage: 40° C./75% RH for 6 months (rounded)
Method: HPLC data are obtained by Waters Alliance 2695 HPLC system with 2996 PDA detector using the following conditions; • Column: Inertsil ODS-3 (3 micrometers, 4.6×150 mm), • Eluent: acetonitrile/10 mM ammonium acetate=32:68, • Detection: UV at 215 nm, • Flow rate: 1 mL/min, and • Column temperature: 40° C.
Solid-state stability study is performed using Nagano Science Constant temperature/humidity control chamber LH-20-11 M, LH-21-11 M, LTL-200D3CJ-14 or LTX-01. […] The crystalline form, thermal behavior, purity and/or weight change of the resultant sample after the exposure or irradiation are evaluated by PXRD, TG/DTA or DSC, HPLC, microbalance, respectively.

[4] = 25° C./60% RH, 40° C./75% RH and/or Xenon lamp
[5] = 40° C./75% RH for 1 month, HPLC
[6] = 40° C./75% RH for 6 months, HPLC
[7] = storage at 40° C./75% RH for 1 month, HPLC
[8] = storage at 40° C./75% RH for 6 months, HPLC

SMILES	temperature at which transformation to another polymorph form begins [1]	hygroscopicity in comparison with the white solid of WO2006/090224 [2]	weight gain % ([2]; 85% RH) [%]	weight gain % ([2]; 90% RH) [%]	weight gain % ([2]; 95% RH) [%]	solid-state stability, comparison in words [3]	solid-state stability (in words) [3, 4]	Purity (Area %) Main peak [3, 5] [Area %]	purity after storage [3] [%]	Purity (Area %) Main peak [3, 6] [Area %]	solid-state stability (in words) ([3]; 70° C./75% RH)	remaining ([3]; 70° C./75% RH, after 3 weeks, HPLC) [%]	Assay Remaining % [3, 7] [%]	Assay Remaining % [3, 8] [%]	water absorbed [2] [wt %]	temperature up to which the form is stable [1]	time to transformation to Polymorph Form III ([3]; 70° C./75% RH) [days]	change of crystal form on storage ([3]; 25° C./60% RH)
O=C(O)C1(CN2CCC(COc3noc4cccc(OCC(F)(F)F)c34)CC2)CCOCC1 [Polymorph Form III, 4-{[4-({[4-(2,2,2-trifluoroethoxy)-1,2-benzisoxazol-3-yl]oxy}methyl)piperidin-1-yl]methyl}-tetrahydro-2H-pyran-4-carboxylic acid]	around 90 °C	lower hygroscopicity	0.48	0.53	0.60	more excellent solid-state stability than Polymorph Form I	stable	99.7	99	99.1	chemically and physically stable	100	99	97	–	–	–	–
O=C(O)C1(CN2CCC(COc3noc4cccc(OCC(F)(F)F)c34)CC2)CCOCC1 [Polymorph Form V, 4-{[4-({[4-(2,2,2-trifluoroethoxy)-1,2-benzisoxazol-3-yl]oxy}methyl)piperidin-1-yl]methyl}-tetrahydro-2H-pyran-4-carboxylic acid]	–	lower hygroscopicity	0.74	0.85	1.1	–	–	–	–	–	–	–	–	–	–	–	–	–
O=C(O)C1(CN2CCC(COc3noc4cccc(OCC(F)(F)F)c34)CC2)CCOCC1 [White solid disclosed in the prior art WO2006/090224] [4-{[4-({[4-(2,2,2-trifluoroethoxy)-1,2-benzisoxazol-3-yl]oxy}methyl)piperidin-1-yl]methyl}-tetrahydro-2H-pyran-4-carboxylic acid, reference compound]	–	–	0.99	5.3	15	–	–	–	–	–	–	–	–	–	15	–	–	–

Continued, in another order:

temperature at which transformation to another polymorph form begins [1]	hygroscopicity in comparison with the white solid of WO2006/090224 [2]	weight gain % ([2]; 85% RH) [%]	weight gain % ([2]; 90% RH) [%]	weight gain % ([2]; 95% RH) [%]	solid-state stability, comparison in words [3]	solid-state stability (in words) [3, 4]	Purity (Area %) Main peak [3, 5] [Area %]	purity after storage [3] [%]	Purity (Area %) Main peak [3, 6] [Area %]	solid-state stability (in words) ([3]; 70° C./75% RH)	remaining ([3]; 70° C./75% RH, after 3 weeks, HPLC) [%]	Assay Remaining % [3, 7] [%]	Assay Remaining % [3, 8] [%]	water absorbed [2] [wt %]	temperature up to which the form is stable [1]	time to transformation to Polymorph Form III ([3]; 70° C./75% RH) [days]	SMILES	change of crystal form on storage ([3]; 25° C./60% RH)
–	–	–	–	–	–	–	–	–	–	–	–	–	–	–	up to 115 °C	–	O=C(O)C1(CN2CCC(COc3noc4cccc(OCC(F)(F)F)c34)CC2)CCOCC1 [Polymorph Form IV, 4-{[4-({[4-(2,2,2-trifluoroethoxy)-1,2-benzisoxazol-3-yl]oxy}methyl)piperidin-1-yl]methyl}-tetrahydro-2H-pyran-4-carboxylic acid]	–
around 110 °C	–	0.065	0.089	14	more stable than the white solid	stable	99.4	96	95.6	–	–	98	87	14	–	≤ 1	O=C(O)C1(CN2CCC(COc3noc4cccc(OCC(F)(F)F)c34)CC2)CCOCC1 [Polymorph Form I, 4-{[4-({[4-(2,2,2-trifluoroethoxy)-1,2-benzisoxazol-3-yl]oxy}methyl)piperidin-1-yl]methyl}-tetrahydro-2H-pyran-4-carboxylic acid]	gradually transforms to Polymorph Form III
–	–	–	–	–	more stable than the white solid	–	–	–	–	–	–	–	–	–	–	–	O=C(O)C1(CN2CCC(COc3noc4cccc(OCC(F)(F)F)c34)CC2)CCOCC1 [Polymorph Form II, 4-{[4-({[4-(2,2,2-trifluoroethoxy)-1,2-benzisoxazol-3-yl]oxy}methyl)piperidin-1-yl]methyl}-tetrahydro-2H-pyran-4-carboxylic acid]	–

Source: patent publication US10179779B2, “Polymorph forms” (RaQualia Pharma Inc., priority 2012, dated 2019)
